Assay results reported in ChEMBL document CHEMBL1909046, “DrugMatrix in vitro pharmacology data”.

Columns and labels:
[1] = DRUGMATRIX: Atrial Natriuretic Factor (ANF) radioligand binding (ligand: [125I] ANF (rat)); assay type: cell membranes, Cavia porcellus, Dunkin-Hartley, Adrenal gland, Membrane; conditions: Not Active = under 50% inhibition at 10 µM
[2] = DRUGMATRIX: beta-Lactamase enzyme inhibition (substrate: Nitrocefin); set-up: species or system Bacillus cereus; conditions: Not Active = under 50% inhibition at 10 µM
[3] = molecular target: T1, 5-hydroxytryptamine receptor 2C (Homo sapiens, UniProt P28335); test: DRUGMATRIX: Serotonin (5-Hydroxytryptamine) 5-HT2C radioligand binding (ligand: [3H] Mesulergine); assay type: cell membranes, CHO-K1, Membrane; conditions: cho-k1; Not Active = under 50% inhibition at 10 µM
T1 sequence (P28335 whole entry): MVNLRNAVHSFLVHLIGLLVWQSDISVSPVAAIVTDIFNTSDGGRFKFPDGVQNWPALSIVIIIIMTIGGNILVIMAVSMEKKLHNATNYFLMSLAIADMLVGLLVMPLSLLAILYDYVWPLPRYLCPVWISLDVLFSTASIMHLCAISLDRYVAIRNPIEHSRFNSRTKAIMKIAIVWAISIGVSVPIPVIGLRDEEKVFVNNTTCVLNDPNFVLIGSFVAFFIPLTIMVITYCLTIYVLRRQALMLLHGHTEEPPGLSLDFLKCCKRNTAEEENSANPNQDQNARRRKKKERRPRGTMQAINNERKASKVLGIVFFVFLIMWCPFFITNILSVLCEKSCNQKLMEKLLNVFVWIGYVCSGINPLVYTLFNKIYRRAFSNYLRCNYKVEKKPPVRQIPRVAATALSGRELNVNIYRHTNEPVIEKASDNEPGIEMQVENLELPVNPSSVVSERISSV

[4] = molecular target: Sigma non-opioid intracellular receptor 1 (Homo sapiens, UniProt Q99720); test: DRUGMATRIX: Sigma1 radioligand binding (ligand: [3H] Haloperidol); assay type: cell membranes, Jurkat, Membrane; conditions: jurkat; Not Active = under 50% inhibition at 10 µM
Sequence of Sigma non-opioid intracellular receptor 1 (Q99720 whole entry): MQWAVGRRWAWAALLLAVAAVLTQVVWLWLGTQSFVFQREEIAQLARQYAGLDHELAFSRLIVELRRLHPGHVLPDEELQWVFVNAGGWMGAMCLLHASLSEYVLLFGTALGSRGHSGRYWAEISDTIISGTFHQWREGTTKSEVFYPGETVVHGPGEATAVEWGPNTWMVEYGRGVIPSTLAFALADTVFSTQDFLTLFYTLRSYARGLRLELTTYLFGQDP

[5] = molecular target: T2, C-C chemokine receptor type 4 (Homo sapiens, UniProt P51679); assay type: cell membranes, Membrane; conditions: chem-1; note: in other assays of this panel Not Active means under 50% inhibition at 10 µM
T2 sequence (P51679 whole entry): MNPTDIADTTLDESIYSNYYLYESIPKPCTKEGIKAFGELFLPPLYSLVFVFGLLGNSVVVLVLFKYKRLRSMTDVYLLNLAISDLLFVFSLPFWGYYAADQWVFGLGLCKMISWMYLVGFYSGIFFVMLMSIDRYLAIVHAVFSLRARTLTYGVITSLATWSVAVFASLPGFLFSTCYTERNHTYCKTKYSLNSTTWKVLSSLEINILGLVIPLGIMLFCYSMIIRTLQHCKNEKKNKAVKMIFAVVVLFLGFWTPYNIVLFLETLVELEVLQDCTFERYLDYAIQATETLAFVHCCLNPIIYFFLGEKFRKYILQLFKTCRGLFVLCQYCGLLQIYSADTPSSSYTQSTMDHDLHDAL

[6] = DRUGMATRIX: Glutamate, AMPA radioligand binding (ligand: [3H] AMPA); assay type: cell membranes, Rattus norvegicus, Wistar, Cerebral cortex, Membrane; conditions: Not Active = under 50% inhibition at 10 µM
Melanocortin receptor 3 = Melanocortin receptor 3 (Homo sapiens, UniProt P41968); assay type: cell membranes, Membrane; conditions: hek293; note: in other assays of this panel Not Active means under 50% inhibition at 10 µM
Sequence of Melanocortin receptor 3 (P41968 whole entry): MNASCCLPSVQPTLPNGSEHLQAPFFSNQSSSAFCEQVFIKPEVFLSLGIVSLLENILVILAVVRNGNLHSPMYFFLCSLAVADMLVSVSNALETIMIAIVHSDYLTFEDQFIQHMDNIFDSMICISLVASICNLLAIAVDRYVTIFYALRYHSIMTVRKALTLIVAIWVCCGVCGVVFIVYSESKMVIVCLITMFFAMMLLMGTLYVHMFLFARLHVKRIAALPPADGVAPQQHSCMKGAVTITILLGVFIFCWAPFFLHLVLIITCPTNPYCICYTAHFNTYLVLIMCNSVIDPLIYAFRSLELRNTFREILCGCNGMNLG

Nitric oxide synthase 1 = Nitric oxide synthase 1 (Rattus norvegicus, UniProt P29476); assay type: tissue-based, Cerebellum; note: in other assays of this panel Not Active means under 50% inhibition at 10 µM
Sequence of Nitric oxide synthase 1 (P29476 whole entry): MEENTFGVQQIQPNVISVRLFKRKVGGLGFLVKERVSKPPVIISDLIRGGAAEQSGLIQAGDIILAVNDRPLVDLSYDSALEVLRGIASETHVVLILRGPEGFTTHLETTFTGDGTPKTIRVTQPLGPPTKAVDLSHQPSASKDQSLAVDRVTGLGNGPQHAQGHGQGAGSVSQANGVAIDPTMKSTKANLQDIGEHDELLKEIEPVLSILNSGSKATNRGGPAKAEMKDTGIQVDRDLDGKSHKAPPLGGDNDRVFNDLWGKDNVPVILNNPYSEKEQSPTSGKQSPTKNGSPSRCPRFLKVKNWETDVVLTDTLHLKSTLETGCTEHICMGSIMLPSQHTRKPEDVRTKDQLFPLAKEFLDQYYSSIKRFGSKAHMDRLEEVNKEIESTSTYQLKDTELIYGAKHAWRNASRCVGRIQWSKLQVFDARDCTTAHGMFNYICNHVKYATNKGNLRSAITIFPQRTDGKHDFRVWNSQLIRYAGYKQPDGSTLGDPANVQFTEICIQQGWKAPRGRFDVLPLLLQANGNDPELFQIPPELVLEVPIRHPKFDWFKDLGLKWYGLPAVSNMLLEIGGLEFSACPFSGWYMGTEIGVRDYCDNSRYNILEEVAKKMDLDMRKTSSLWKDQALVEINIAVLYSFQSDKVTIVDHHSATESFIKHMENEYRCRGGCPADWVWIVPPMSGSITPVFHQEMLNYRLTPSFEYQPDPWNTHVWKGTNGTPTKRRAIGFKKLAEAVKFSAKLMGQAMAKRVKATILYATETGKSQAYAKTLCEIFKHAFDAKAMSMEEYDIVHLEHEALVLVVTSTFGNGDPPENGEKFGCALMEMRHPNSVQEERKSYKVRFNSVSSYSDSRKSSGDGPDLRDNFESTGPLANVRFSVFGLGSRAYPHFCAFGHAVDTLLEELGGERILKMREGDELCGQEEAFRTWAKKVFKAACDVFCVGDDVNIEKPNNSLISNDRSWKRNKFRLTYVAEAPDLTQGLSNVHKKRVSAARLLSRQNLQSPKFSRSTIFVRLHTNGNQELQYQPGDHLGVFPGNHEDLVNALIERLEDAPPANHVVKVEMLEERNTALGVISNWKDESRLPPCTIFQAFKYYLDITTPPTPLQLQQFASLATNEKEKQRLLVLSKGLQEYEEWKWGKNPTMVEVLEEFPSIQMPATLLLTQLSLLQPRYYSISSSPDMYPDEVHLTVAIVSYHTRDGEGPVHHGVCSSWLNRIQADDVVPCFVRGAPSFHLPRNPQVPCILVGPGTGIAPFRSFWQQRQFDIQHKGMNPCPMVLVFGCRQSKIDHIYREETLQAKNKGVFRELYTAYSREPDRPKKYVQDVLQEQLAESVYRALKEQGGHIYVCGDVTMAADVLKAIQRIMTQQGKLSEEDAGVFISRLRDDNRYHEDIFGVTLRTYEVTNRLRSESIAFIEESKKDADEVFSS

[7] = molecular target: T3, Nitric oxide synthase, inducible (Mus musculus, UniProt P29477); set-up: species or system Escherichia coli;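 note: inhibition of iNOS enzyme activity measured with L-arginine as substrate; in other assays of this panel Not Active means under 50% inhibition at 10 µM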
T3 sequence (P29477 whole entry): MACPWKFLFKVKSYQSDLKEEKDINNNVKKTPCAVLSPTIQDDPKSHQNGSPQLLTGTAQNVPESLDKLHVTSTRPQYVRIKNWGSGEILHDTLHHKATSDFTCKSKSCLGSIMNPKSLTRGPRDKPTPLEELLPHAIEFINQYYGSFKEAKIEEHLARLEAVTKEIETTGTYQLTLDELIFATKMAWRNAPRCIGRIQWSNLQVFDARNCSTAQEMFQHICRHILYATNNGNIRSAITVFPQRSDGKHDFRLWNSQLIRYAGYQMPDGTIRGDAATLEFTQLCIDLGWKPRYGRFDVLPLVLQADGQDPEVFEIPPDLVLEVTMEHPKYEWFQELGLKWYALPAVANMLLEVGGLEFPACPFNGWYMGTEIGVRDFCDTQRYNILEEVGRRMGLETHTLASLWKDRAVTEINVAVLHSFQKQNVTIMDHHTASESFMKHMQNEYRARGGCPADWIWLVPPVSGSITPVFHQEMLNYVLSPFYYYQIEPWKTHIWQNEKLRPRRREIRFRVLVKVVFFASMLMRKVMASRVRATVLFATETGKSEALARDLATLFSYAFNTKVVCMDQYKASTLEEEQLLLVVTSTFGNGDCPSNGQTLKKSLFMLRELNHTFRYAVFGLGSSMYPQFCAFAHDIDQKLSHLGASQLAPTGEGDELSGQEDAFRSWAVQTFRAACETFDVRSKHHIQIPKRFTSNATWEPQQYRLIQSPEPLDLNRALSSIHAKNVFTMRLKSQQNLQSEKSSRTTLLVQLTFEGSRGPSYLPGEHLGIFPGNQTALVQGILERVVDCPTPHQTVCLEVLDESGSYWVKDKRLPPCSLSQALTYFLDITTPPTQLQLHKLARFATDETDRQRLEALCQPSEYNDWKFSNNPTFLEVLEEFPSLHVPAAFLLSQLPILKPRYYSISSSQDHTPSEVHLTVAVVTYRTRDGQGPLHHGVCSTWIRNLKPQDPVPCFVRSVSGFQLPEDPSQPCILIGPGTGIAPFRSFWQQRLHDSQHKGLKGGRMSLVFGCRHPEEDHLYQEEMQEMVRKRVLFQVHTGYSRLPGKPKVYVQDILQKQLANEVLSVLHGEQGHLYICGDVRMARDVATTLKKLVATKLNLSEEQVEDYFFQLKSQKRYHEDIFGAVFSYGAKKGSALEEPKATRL

[8] = DRUGMATRIX: Phosphodiesterase PDE4 enzyme inhibition (substrate: [3H]cAMP + cAMP); conditions: u-937; Not Active = under 50% inhibition at 10 µM
[9] = molecular target: Mitogen-activated protein kinase 1 (Homo sapiens, UniProt P28482); test: DRUGMATRIX: Protein Serine/Threonine Kinase, ERK2 enzyme inhibition (substrate: Myelin Basic Protein); set-up: species or system Escherichia coli; conditions: Not Active = under 50% inhibition at 10 µM
Sequence of Mitogen-activated protein kinase 1 (P28482 whole entry): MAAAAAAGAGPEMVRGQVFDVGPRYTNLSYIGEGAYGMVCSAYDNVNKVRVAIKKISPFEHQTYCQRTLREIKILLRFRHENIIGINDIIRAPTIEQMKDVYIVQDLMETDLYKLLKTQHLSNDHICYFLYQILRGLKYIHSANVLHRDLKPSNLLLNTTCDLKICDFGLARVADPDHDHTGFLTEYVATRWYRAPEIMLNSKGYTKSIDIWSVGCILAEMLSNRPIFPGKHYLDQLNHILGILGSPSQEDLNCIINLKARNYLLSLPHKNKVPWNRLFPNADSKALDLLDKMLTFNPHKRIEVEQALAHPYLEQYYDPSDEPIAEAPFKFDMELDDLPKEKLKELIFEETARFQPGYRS

Cc1onc(-c2ccccc2)c1-c1ccc(S(N)(=O)=O)cc1 [VALDECOXIB]
Not Active: IC50 [1] | Ki [1] | IC50 [2] | Ki [2] | IC50 [3] | IC50 [4] | IC50 [5] | IC50 [6] | Ki [6] | IC50 (Melanocortin receptor 3) | IC50 (Nitric oxide synthase 1) | IC50 [7] | IC50 [8] | Ki [8] | IC50 [9]

CC[C@]1(O)C[C@@H]2CN(CCc3c([nH]c4ccccc34)[C@@](C(=O)OC)(c3cc4c(cc3OC)N(C)[C@H]3[C@@](O)(C(=O)OC)[C@H](OC(C)=O)[C@]5(CC)C=CCN6CC[C@]43[C@@H]65)C2)C1 [VINBLASTINE]
Not Active: IC50 [1] | Ki [1] | IC50 [2] | Ki [2] | IC50 [3] | IC50 [4] | IC50 [5] | IC50 [6] | Ki [6] | IC50 (Melanocortin receptor 3) | IC50 (Nitric oxide synthase 1) | IC50 [7] | IC50 [8] | Ki [8] | IC50 [9]

CC(=O)CC(c1ccccc1)c1c(O)c2ccccc2oc1=O (stereo not given) [WARFARIN]
Not Active: IC50 [1] | Ki [1] | IC50 [2] | Ki [2] | IC50 [3] | IC50 [4] | IC50 [5] | IC50 [6] | Ki [6] | IC50 (Melanocortin receptor 3) | IC50 (Nitric oxide synthase 1) | IC50 [7] | IC50 [8] | Ki [8] | IC50 [9]

C[C@@H](N)[C@H]1CC[C@H](C(=O)Nc2ccncc2)CC1 [Y-27632]
Not Active: IC50 [1] | Ki [1] | IC50 [2] | Ki [2] | IC50 [3] | IC50 [4] | IC50 [5] | IC50 [6] | Ki [6] | IC50 (Melanocortin receptor 3) | IC50 (Nitric oxide synthase 1) | IC50 [7] | IC50 [8] | Ki [8] | IC50 [9]

[Cl-].[Cl-].[Zn+2] [ZINC CHLORIDE]
Not Active: IC50 [1] | Ki [1] | IC50 [2] | Ki [2] | IC50 [3] | IC50 [4] | IC50 [5] | IC50 [6] | Ki [6] | IC50 (Melanocortin receptor 3) | IC50 (Nitric oxide synthase 1) | IC50 [7] | IC50 [8] | Ki [8] | IC50 [9]
